Experimental findings from patent publication US20030153475A1, “Composition for treating contact lenses” (priority 2001, published 2003) are described below.

In this assay the target is T1, hen egg lysozyme (Gallus gallus, UniProt P00698).
T1 construct: from tissue; host or cells: hen egg
In words: lysozyme denaturation/stabilization test: lysozyme activity on M. luteus suspension, optical density at 450nm. Type of assay: biochemical. The conditions noted are these: Table 1, saline + 20 mM buffering agent. How it is done: Each solution included saline and 20 mM of buffering agent as specified in Table 1 below. To each test solution was added 1 mg/ml of hen egg lysozyme as well as a phosphate buffered saline (PBS) control. The test solutions were mixed slowly with a stir bar until the lysozyme was incorporated into the solutions. Five ml of each lysozyme-containing test solution was retained as the unheated control. The remaining 5 ml of each lysozyme-containing test solution were placed in glass less vials, capped with silicone stoppers and incubated in a shaking water bath at 80° C. 40 revolutions per minute (rpm) for 1 hour—these heating conditions are sufficient to denature the lysozyme, absent a stabilization effect provided by the buffering agents. The vials were allowed to come to ambient temperature before testing. A 0.00025 g/ml suspension of M. luteus was prepared from lyophilized cells in PBS. The suspension was continually mixed on a stir plate during the testing period to prevent the suspension from settling. For each set of test solutions, the following were tested (sample): a heated lysozyme-containing test solution (“lysozyme+heat”); an unheated lysozyme-containing test solution (“lysozyme/no heat”; and a test solution without lysozyme (“no lysozyme”). One ml of each sample was placed into a glass test tube to which 9 ml of M. luteus suspension was added and vortexed. A 1-ml sub sample was placed into a disposable cuvette and evaluated on a UV-vis spectrophotometer at 450nm. […] Each of the solutions were evaluated in triplicate. Each of the three optical density measurements from the triplicate samples were averaged.

Where [1] appears, read: lysozyme + heat (80° C., 1 hour).
[2] abbreviates: lysozyme/no heat, 1 mg/ml lysozyme.

T1 sequence (P00698 19-147): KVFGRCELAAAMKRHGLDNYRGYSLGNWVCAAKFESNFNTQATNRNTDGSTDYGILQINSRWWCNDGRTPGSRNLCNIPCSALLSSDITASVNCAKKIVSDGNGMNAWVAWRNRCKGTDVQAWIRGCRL

As for Borate, under setting [1], the “Time 0 Min (optical density, 450nm)” value was determined as 0.872; the “Percent Change 5 Min” value worked out at 21.90%; the “Time 5 Min (optical density, 450nm)” value is listed as 0.681; the “Percent Change 10 Min” value was found to be 55.28%. Moreover, the “Time 10 Min (optical density, 450nm)” value under setting [1] was 0.390. Further, the “Time 0 Min (optical density, 450nm)” value under setting [2] worked out at 0.619. Besides, under “lysozyme/no heat”, the “Percent Change 5 Min” value came out at 91.44%; the “Time 5 Min (optical density, 450nm)” value is 0.053; the “Percent Change 10 Min” value is 94.51%; the “Time 10 Min (optical density, 450nm)” value is reported as 0.034. For the setting “no lysozyme”, the “Time 0 Min (optical density, 450nm)” value worked out at 0.853; the “Percent Change 5 Min” value amounted to 0.00%; the “Time 5 Min (optical density, 450nm)” value is recorded as 0.853; the “Percent Change 10 Min” value was −0.12%. In addition, the “Time 10 Min (optical density, 450nm)” value (no lysozyme) is recorded as 0.854.

As to `NC(CO)(CO)CO` [Tris, 2-amino-2-hydroxymethyl-1,3-propanediol], under setting [1], the “Time 0 Min (optical density, 450nm)” value is listed as 0.810; the “Percent Change 5 Min” value is recorded as 80.99%; the “Time 5 Min (optical density, 450nm)” value turned out to be 0.154; the “Percent Change 10 Min” value was found to be 85.56%. Further, the “Time 10 Min (optical density, 450nm)” value under setting [1] was 0.117. The “Time 0 Min (optical density, 450nm)” value under setting [2] is given as 0.654. Under “lysozyme/no heat”, the “Percent Change 5 Min” value is 92.66%; the “Time 5 Min (optical density, 450nm)” value worked out at 0.048; the “Percent Change 10 Min” value was determined as 95.72%; the “Time 10 Min (optical density, 450nm)” value came out at 0.028. Under “no lysozyme”, the “Time 0 Min (optical density, 450nm)” value was found to be 0.859; the “Percent Change 5 Min” value amounted to 0.58%; the “Time 5 Min (optical density, 450nm)” value is given as 0.854; the “Percent Change 10 Min” value is on record as 0.58%. Also, the “Time 10 Min (optical density, 450nm)” value (no lysozyme) stood at 0.854.

On to `O=C(O)CC(O)(CC(=O)O)C(=O)O` [Citrate], for which, under setting [1], the “Time 0 Min (optical density, 450nm)” value is reported as 0.877; the “Percent Change 5 Min” value stood at 2.96%; the “Time 5 Min (optical density, 450nm)” value is 0.851; the “Percent Change 10 Min” value worked out at 10.49%. Moreover, under setting [1], the “Time 10 Min (optical density, 450nm)” value is reported as 0.785. Moreover, under setting [2], the “Time 0 Min (optical density, 450nm)” value worked out at 0.654. Moreover, where the note is “lysozyme/no heat”, the “Percent Change 5 Min” value is 92.51%; the “Time 5 Min (optical density, 450nm)” value is listed as 0.049; the “Percent Change 10 Min” value is given as 95.41%; the “Time 10 Min (optical density, 450nm)” value is given as 0.030. For the setting “no lysozyme”, the “Time 0 Min (optical density, 450nm)” value is reported as 0.857; the “Percent Change 5 Min” value was found to be 0.82%; the “Time 5 Min (optical density, 450nm)” value is listed as 0.850; the “Percent Change 10 Min” value was found to be 0.82%. The “Time 10 Min (optical density, 450nm)” value (no lysozyme) is 0.850.

As for Phosphate, under setting [1], the “Time 0 Min (optical density, 450nm)” value turned out to be 0.861; the “Percent Change 5 Min” value stood at 0.34%; the “Time 5 Min (optical density, 450nm)” value is on record as 0.858; the “Percent Change 10 Min” value came to 1.05%. The “Time 10 Min (optical density, 450nm)” value under setting [1] came out at 0.852. Moreover, the “Time 0 Min (optical density, 450nm)” value under setting [2] was found to be 0.634. For the setting “lysozyme/no heat”, the “Percent Change 5 Min” value is 91.80%; the “Time 5 Min (optical density, 450nm)” value is 0.052; the “Percent Change 10 Min” value turned out to be 95.43%; the “Time 10 Min (optical density, 450nm)” value turned out to be 0.029. Where the note is “no lysozyme”, the “Time 0 Min (optical density, 450nm)” value is on record as 0.856; the “Percent Change 5 Min” value is 0.47%; the “Time 5 Min (optical density, 450nm)” value amounted to 0.852; the “Percent Change 10 Min” value was 0.23%. For the same compound, where the note is “no lysozyme”, the “Time 10 Min (optical density, 450nm)” value is recorded as 0.854.
